The values that follow come from US10710980B2, “Aminopyridine derivatives and their use as selective ALK-2 inhibitors” (priority 2016, dated 2020).

The solubility is the concentration that dissolves in the medium under given conditions. Higher therefore signals a readily soluble substance. A word on the IC50: it is the point on the concentration scale where inhibition reaches its midpoint.

In brackets after ≈: the same amount, converted by molar mass. Structures can show the parent of a compound that is named as a salt.

Data set [1] in a line: Dynamic Vapor Sorption, physical stability to humidity. The format is physicochemical. Particulars: for physical stability (DVS): 50%-0%-90% RH.
The nature of data set [2]: Solubility (at 25° C., 24 h equilibration). It is filed as physicochemical. The note with it: for solubility: 25° C., 24 h; for solubility / solubility at 24 h: target concentration 2 mg/mL; for solubility at 24 h: 25 °C, thermodynamic from solid.
Data set [3] deals with T1, wild-type ALK2 (aa172-499) (Homo sapiens (Human), UniProt Q04771). As to the kind of experiment: Caliper biochemical peptide phosphorylation assay, ALK2. The note with it: 15 μm ATP, 60 min at 30° C.; read-out: ALK2 EPK (IC50).
T1 sequence (Q04771 172-499): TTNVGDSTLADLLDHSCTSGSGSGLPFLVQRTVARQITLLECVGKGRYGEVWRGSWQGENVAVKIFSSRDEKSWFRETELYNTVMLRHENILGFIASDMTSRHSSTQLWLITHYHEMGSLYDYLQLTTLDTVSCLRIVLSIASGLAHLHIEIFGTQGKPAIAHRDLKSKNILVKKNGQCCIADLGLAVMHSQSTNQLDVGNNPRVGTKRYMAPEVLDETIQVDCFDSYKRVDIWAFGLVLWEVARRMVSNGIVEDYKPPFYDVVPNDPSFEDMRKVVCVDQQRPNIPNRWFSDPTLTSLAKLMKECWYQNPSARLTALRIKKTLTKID
The next data set has as its target ALK5 (aa162-503) (Homo sapiens (Human), UniProt P36897). Description: Caliper biochemical peptide phosphorylation assay, ALK5. The note with it: 15 μm ATP, 60 min at 30° C.; read-out: ALK5 EPK (IC50).
Data set [4] deals with T1, wild-type ALK2 (aa172-499). Description: ADPGlo biochemical autophosphorylation assay, ALK2. Particulars: 15 μm ATP, 60 min at 32° C. On the technique in general: ADP-Glo turns the ADP formed in a reaction into a luminescent signal.
The next data set deals with ALK1 (aa166-493) (Homo sapiens (Human), UniProt P37023). As to the kind of experiment: Caliper biochemical peptide phosphorylation assay, ALK1. Particulars: 15 μm ATP, 60 min at 30° C.; read-out: ALK1 EPK (IC50).
Chain of ALK1 (aa166-493) (P37023 166-493): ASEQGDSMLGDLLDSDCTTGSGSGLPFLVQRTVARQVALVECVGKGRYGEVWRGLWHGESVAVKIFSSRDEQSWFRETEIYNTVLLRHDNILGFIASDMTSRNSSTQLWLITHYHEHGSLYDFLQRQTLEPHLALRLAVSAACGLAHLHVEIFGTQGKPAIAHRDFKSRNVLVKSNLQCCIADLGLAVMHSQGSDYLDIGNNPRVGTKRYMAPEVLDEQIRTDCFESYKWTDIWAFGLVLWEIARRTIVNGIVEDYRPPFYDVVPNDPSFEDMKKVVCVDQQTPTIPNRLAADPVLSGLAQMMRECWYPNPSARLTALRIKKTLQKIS
In another data set the target is ALK3 (aa198-525) (Homo sapiens (Human), UniProt P36894). As to the kind of experiment: ADPGlo biochemical autophosphorylation assay, ALK3. Particulars: 15 μm ATP, 60 min at 32° C.
Chain of ALK3 (aa198-525) (P36894 198-525): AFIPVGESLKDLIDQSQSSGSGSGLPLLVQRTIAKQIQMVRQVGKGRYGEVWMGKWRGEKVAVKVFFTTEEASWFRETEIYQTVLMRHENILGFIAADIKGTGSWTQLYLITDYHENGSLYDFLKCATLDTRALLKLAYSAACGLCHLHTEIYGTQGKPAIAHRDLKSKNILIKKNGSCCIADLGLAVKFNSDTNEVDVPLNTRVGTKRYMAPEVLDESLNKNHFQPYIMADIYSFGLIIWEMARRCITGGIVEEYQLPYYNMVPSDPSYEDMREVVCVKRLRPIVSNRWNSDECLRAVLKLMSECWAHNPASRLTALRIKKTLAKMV
Data set [5] concerns BMP response element (BRE) luciferase reporter in HuH7 cells, BMP6 stimulated. As to the kind of experiment: BMP signaling reporter gene assay. It is filed as cell-based. Particulars: Homo sapiens, Huh-7; HuH7 BRE-luciferase, BMP6 100 ng/ml, 5 hours; read-out: MSD BMP RGA IC50. On the technique in general: A reporter such as luciferase makes a cellular process visible.
Another data set deals with ALK6 (aa168-495) (Homo sapiens (Human), UniProt O00238). As to the kind of experiment: Caliper biochemical peptide phosphorylation assay, ALK6. Particulars: 15 μm ATP, 60 min at 30° C.; read-out: ALK6 EPK (IC50).
Chain of ALK6 (aa168-495) (O00238 168-495): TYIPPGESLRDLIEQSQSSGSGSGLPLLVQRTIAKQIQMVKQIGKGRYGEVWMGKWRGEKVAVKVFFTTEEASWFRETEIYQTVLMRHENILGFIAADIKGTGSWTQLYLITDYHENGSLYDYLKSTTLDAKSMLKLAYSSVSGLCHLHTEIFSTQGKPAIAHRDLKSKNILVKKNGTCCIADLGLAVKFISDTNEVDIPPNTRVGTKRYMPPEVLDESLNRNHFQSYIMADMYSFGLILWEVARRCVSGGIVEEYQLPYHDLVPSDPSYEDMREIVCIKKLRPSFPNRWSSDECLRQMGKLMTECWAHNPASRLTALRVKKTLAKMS

Chain of ALK5 (aa162-503) (P36897 162-503): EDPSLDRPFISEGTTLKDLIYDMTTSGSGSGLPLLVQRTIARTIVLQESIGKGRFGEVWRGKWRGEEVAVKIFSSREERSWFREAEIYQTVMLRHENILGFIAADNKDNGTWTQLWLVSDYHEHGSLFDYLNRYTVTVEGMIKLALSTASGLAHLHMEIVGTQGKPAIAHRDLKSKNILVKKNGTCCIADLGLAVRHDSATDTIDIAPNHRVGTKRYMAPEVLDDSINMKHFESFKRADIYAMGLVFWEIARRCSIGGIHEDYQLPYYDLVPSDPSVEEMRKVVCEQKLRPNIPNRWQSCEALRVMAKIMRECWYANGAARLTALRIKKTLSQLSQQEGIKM

With `Nc1ncc(-c2ccc([C@@]34C[C@@H]3CN(C3CCOCC3)C4)cc2)cc1C(=O)NC12CCC(O)(CC1)CC2` [Fumarate salt Modification HA, 2-amino-N-(4-hydroxybicyclo[2.2.2]octan-1-yl)-5-(4-((1R,5S)-3-(tetrahydro-2H-pyran-4-yl)-3-azabicyclo[3.1.0]hexan-1-yl)phenyl)nicotinamide], the “physical stability (DVS)” value in data set [1] (25° C.) was “physically stable at least from 0% to 90% RH”; in data set [1] (40° C.), “physically stable at least from 10% to 90% RH”. Moreover, in data set [1] (data not shown), the “humidity range of stability compared with free form polymorphs” value was “stable over a wider humidity range than free form polymorphs”. Further, the solubility in data set [2] (Water/7.2), in data set [2] (pH 1.0 1N HCl/1.1), in data set [2] (pH 2.0 HCl buffer 2.1), in data set [2] (pH 2.0 SGF/2.0), in data set [2] (pH 4.7 acetate buffer/4.8) and in data set [2] (pH 5.8 FeSSIF/5.9) was greater than 2 mg/mL each time. Further, the solubility in data set [2] (pH 6.5 FaSSIF/6.5) is given as 1.69 mg/mL; in [2] (pH 6.8 phosphate buffer/6.8), 1.08 mg/mL. For the same compound, the “solubility compared with free form Modification HA” value in data set [2] (aqueous buffers) is “better solubility than free form Modification HA in some aqueous buffers”. The compound further had a solubility at 24 h in data set [2] (borate buffer, pH 9, aqueous buffer, pH 9.0 borate buffer/8.6, 24 h) of 0.03 mg/mL.

In the case of `Nc1ncc(-c2ccc([C@@]34C[C@@H]3CN(C3CCOCC3)C4)cc2)cc1C(=O)NC12CCC(O)(CC1)CC2` [Free form Modification HA, 2-amino-N-(4-hydroxybicyclo[2.2.2]octan-1-yl)-5-(4-((1R,5S)-3-(tetrahydro-2H-pyran-4-yl)-3-azabicyclo[3.1.0]hexan-1-yl)phenyl)nicotinamide], the solubility at 24 h in data set [2] (1N HCl, pH 1, simulated gastric fluid, pH 1.0 1N HCl/1.1, 24 h) was greater than 2 mg/mL; in [2] (FeSSIF, pH 5.8, fessif, pH 5.8 FeSSIF/5.9, 24 h), 1.69 mg/mL (≈ 3.36 mM); in data set [2] (HCl buffer, pH 2, simulated gastric fluid, pH 2.0 HCl buffer 2.1, 24 h) it was greater than 2 mg/mL; in data set [2] (SGF, pH 2, simulated gastric fluid, pH 2.0 SGF/2.0, 24 h), greater than 2 mg/mL; in data set [2] (acetate buffer, pH 4.7, aqueous buffer, pH 4.7 acetate buffer/4.8, 24 h), greater than 2 mg/mL. In addition, the solubility in [2] (Water/7.2) was 0.07 mg/mL (≈ 0.139 mM); in data set [2] (pH 6.5 FaSSIF/6.5), 0.47 mg/mL (≈ 0.935 mM); in data set [2] (pH 6.8 phosphate buffer/6.8), 0.34 mg/mL (≈ 0.676 mM); in data set [2] (pH 9.0 borate buffer/8.6), “<LOQ”.

As to `C[C@H](c1ccc(-c2cnc(N)c(C(=O)N[C@H]3CC[C@H](O)CC3)c2)cc1)N1CC2(COC2)C1` [Example 3, 5-(4-((R)-1-(2-oxa-6-azaspiro[3.3]heptan-6-yl)ethyl)phenyl)-2-amino-N-((1r,4R)-4-hydroxycyclohexyl)nicotinamide], the IC50 in data set [3] came out at 0.011 µM; at ALK5 (aa162-503) it was 2.13 µM; in data set [4] it was 0.012 µM; on ALK1 (aa166-493), 0.136 µM; on ALK3 (aa198-525), 1.05 µM; in [5], 0.062 µM. Moreover, the half-inhibitory concentration (IC50) on ALK6 (aa168-495) was 1.73 µM.

For `Nc1ncc(-c2ccc([C@@]34C[C@@H]3CN(CCF)C4)cc2)cc1C(=O)N[C@H]1CC[C@H](O)CC1` [Example 48, 2-amino-5-(4-((1R,5S)-3-(2-fluoroethyl)-3-azabicyclo[3.1.0]hexan-1-yl)phenyl)-N-((1r,4R)-4-hydroxycyclohexyl)nicotinamide], the IC50 in data set [3] came to 0.034 µM; on ALK5 (aa162-503) it was 5.3 µM; in data set [4] it was 0.008 µM; on ALK1 (aa166-493), 0.12 µM; on ALK3 (aa198-525) it was 0.97 µM; in [5] it was 0.36 µM. In addition, the IC50 on ALK6 (aa168-495) is 4.4 µM.

Turning to `Nc1ncc(-c2ccc([C@@]34C[C@@H]3CN(CC3COC3)C4)cc2)cc1C(=O)N[C@H]1CC[C@H](O)CC1` [Example 70, 2-amino-N-((1r,4R)-4-hydroxycyclohexyl)-5-(4-((1R,5S)-3-(oxetan-3-ylmethyl)-3-azabicyclo[3.1.0]hexan-1-yl)phenyl)nicotinamide], the IC50 in [3] was 0.068 µM; on ALK5 (aa162-503), 9.4 µM; in data set [4], 0.02 µM; at ALK1 (aa166-493), 0.305 µM; at ALK3 (aa198-525), 2.85 µM; in [5], 0.513 µM. In addition, the half-maximal inhibitory concentration (IC50) at ALK6 (aa168-495) worked out at 8.75 µM.

For `Nc1ncc(-c2ccc([C@]34C[C@H]3CN(C3COC3)C4)cc2)cc1C(=O)NC12CCC(O)(CC1)CC2` [Example 63, 2-amino-N-(4-hydroxybicyclo[2.2.2]octan-1-yl)-5-(4-((1S,5R)-3-(oxetan-3-yl)-3-azabicyclo[3.1.0]hexan-1-yl)phenyl)nicotinamide], the IC50 in [3] worked out at 0.057 µM; on ALK5 (aa162-503), 6.7 µM; in data set [4], 0.091 µM; on ALK1 (aa166-493), 0.94 µM; on ALK3 (aa198-525), 1.8 µM; in [5] it was 0.39 µM. The IC50 on ALK6 (aa168-495) came out at 3.5 µM.

For `Nc1ncc(-c2ccc([C@@]34C[C@@H]3CN(C3CCOCC3)C4)cc2)cc1C(=O)N[C@@H]1CC[C@@H](O)[C@@H](F)C1` [Example 21, 2-amino-N-((1R,3S,4R)-3-fluoro-4-hydroxycyclohexyl)-5-(4-((1R,5S)-3-(tetrahydro-2H-pyran-4-yl)-3-azabicyclo[3.1.0]hexan-1-yl)phenyl)nicotinamide], the IC50 was 0.019 µM in [3]; 0.9 µM on ALK5 (aa162-503); 0.006 µM in [4]; 0.055 µM at ALK1 (aa166-493); 0.26 µM on ALK3 (aa198-525); 0.035 µM in data set [5]. The IC50 at ALK6 (aa168-495) is 1 µM.

For `CS(=O)(=O)N1CCC(N2C[C@H]3C[C@@]3(c3ccc(-c4cnc(N)c(C(=O)N[C@H]5CC[C@H](O)CC5)c4)cc3)C2)CC1` [Example 1, 2-amino-N-((1r,4R)-4-hydroxycyclohexyl)-5-(4-((1R,5S)-3-(1-(methylsulfonyl)piperidin-4-yl)-3-azabicyclo[3.1.0]hexan-1-yl)phenyl)nicotinamide], the IC50 in [3] was determined as 0.009 µM; on ALK5 (aa162-503) it was 0.56 µM; in data set [4], 0.005 µM; at ALK1 (aa166-493) it was 0.075 µM; against ALK3 (aa198-525) it was 0.31 µM; in data set [5], 0.076 µM. On ALK6 (aa168-495), the half-inhibitory concentration (IC50) was 0.74 µM.
